According to patent publication US7910622B2, “Modulation of bacterial quorum sensing with synthetic ligands” (Wisconsin Alumni Research Foundation, priority 2007, dated 2011):

Key:
Test in all cases: cell-based
[1] = molecular target: T1, TraR (Agrobacterium tumefaciens, UniProt P33905); conditions: for A. tumefaciens-TraR Activation [%]: 10 μM ligand; for A. tumefaciens-TraR Inhibition [%]: 10 μM synthetic ligand against 100 nM OOHL; for Activation (%) / Inhibition (%): A. tumefaciens-TraR; for Activation (%): Library C primary agonism screen; for Inhibition (%): Library C primary antagonism screen; for IC50: determined against 100 nM OOHL, read-out: TraR IC50
T1 construct: These strains lack their AHL synthase (I) genes, but retain their native R genes; endogenous in cells; host or cells: A. tumefaciens WCF47 (Δ-traI) with PtraI-lacZ plasmid pCF372
Procedure: A. tumefaciens reporter gene assay protocols. […] An overnight culture of A. tumefaciens WCF47 (pCF372) was diluted to an OD600 of 0.1 in fresh AB minimal medium containing 400 μg/mL octopine and 50 μg/mL streptomycin. A 200 μL-portion of the diluted culture was added to each well of the multititer plate containing AHLs. Plates were grown at 28° C. for 18-20 h in a rotary shaking incubator (200 rpm). The cultures were then assayed for β-galactosidase activity following the Miller assay method. Briefly, 200 μL aliquots of bacteria from each of the wells were added to wells of a polystyrene 96-well plate and the OD600 of each well was recorded. Next, 50 μL aliquots from each well were transferred to a solvent resistant 96-well plate containing 200 μL Z buffer, 8 μL CHCl3 and 4 μL 0.1% aq. sodium dodecylsulfate (SDS). This suspension was mixed via repetitive pipetting, after which the CHCl3 was allowed to settle. A 100-μL aliquot from each well was transferred to a fresh polystyrene 96-well plate, and 20 μL of substrate, o-nitrophenyl-β-D-galactopyranoside (ONPG, 4 μg/mL in phosphate buffer), was added at time zero. After the development of appropriate yellow color (ca. 15-35 min), the reaction was terminated by the addition of 50 μL of 1 M Na2CO3. Absorbance at 420 nm and 550 nm was measured for each well using a plate reader, and Miller units were calculated according to standard methods.
(§1) Dose response reporter gene assays. […] IC50 and EC50 values were calculated using GraphPad Prism software (v. 4.0) using a sigmoidal curve fit.
A. tumefaciens reporter gene assay protocols. […] An overnight culture of A. tumefaciens WCF47 (pCF372) was diluted 1:10 with fresh AB minimal medium containing 400 μg/mL octopine and 50 μg/mL streptomycin. A 200 μL portion of the diluted culture was added to each well of the multititer plate containing AHLs. Plates were incubated at 28° C. for 18-24 h. The cultures were then assayed for β-galactosidase activity following the Miller assay method. Briefly, 200 μL aliquots of bacteria from each of the wells were added to wells of a 96-well multititer plate, and the OD600 of each well was recorded. Next, 50 μL aliquots from each well were transferred to a solvent resistant 96-well multititer plate containing 200 μL Z buffer, 8 μL CHCl3 and 4 μL 0.1% aq. SDS. This suspension was mixed via repetitive pipetting, after which the CHCl3 was allowed to settle. A 100 μL aliquot from each well was transferred to a fresh 96-well multititer plate, and 20 μL of substrate, o-nitrophenyl-β-D-galactopyranoside (ONPG, 4 μg/mL in phosphate buffer), was added at time zero. After the development of appropriate yellow color (ca. 20-30 min), the reaction was terminated by the addition of 50 μL of 1 M Na2CO3. Absorbances at 420 nm and 550 nm were measured for each well using a plate reader, and Miller units were calculated according to standard methods.
as §1

[2] = molecular target: T2, LasR (Pseudomonas aeruginosa, UniProt P25084); assay type: cell-based; conditions: for E. coli-LasR Inhibition [%]: 5 μM synthetic ligand against 7.5 nM OdDHL; for Inhibition (%): E. coli-LasR, Library C primary antagonism screen
T2 construct: expressed in transfected cells; host or cells: E. coli DH5α (pJN105L pSC11), arabinose-induced
Procedure: (§2) E. coli LasR reporter gene assay protocols. […] An overnight culture of E. coli DH5a (pJN105L pSC11) grown at 37° C. was subculture by diluting 1/10 in fresh LB medium containing 100 μg/mL ampicillin and 15 μg/mL gentamicin and shaking at 37° C. until OD600=0.3. Arabinose (4 mg/mL) was then added to induce the LasR promoter and a 200 μL-portion of this culture was added to each well of the multititer plate containing AHLs. Plates were grown at 37° C. for 2 hours in a rotary shaking incubator (200 rpm; OD600=0.45). The cultures were then assayed for activity following the identical β-galactosidase assay protocols used in the A. tumefaciens reporter gene assays.
as §1
(§3) E. coli LasR reporter gene assay protocols. […] An overnight culture of E. coli DH5α (pJN105L pSC11) was diluted 1:10 with fresh LB medium containing 100 μg/mL ampicillin and 15 μg/mL gentamicin. This sub-culture was incubated at 37° C. until OD600=0.3 (4-6 h). Arabinose (4 mg/mL) was then added to induce the LasR promoter, and a 200 μL portion of this culture was added to each well of the multititer plate containing AHLs. Plates were incubated at 37° C. until OD600=0.45 (4-6 h). The cultures were then assayed for LasR activity following the identical β-galactosidase assay protocols used in the A. tumefaciens reporter gene assays (see above).
as §1

[3] = molecular target: T2, LasR; conditions: for E. coli-LasR Activation [%]: 5 μM ligand; for Activation (%): E. coli-LasR, Library C primary agonism screen
Procedure: as §2, §1, §3, §1

[4] = molecular target: T3, LuxR (Aliivibrio fischeri, UniProt P35327); assay type: cell-based, Vibrio fischeri; conditions: for V. fischeri-LuxR Inhibition [%]: 5 μM synthetic ligand against 5 μM OHHL, V. fischeri ES114 (Δ-luxI), normalized to OHHL; for Inhibition (%): V. fischeri-LuxR, Library C primary antagonism screen
T3 construct: a Δ-luxI derivative of V. fischeri ES114, in which the native lux operon behaves as the bioluminescent reporter; endogenous in cells; host or cells: V. fischeri ES114 (Δ-luxI)
Procedure: (§4) Luminescence assays. For agonism assays, an appropriate amount of AHL stock solution was added into a 96-well plate. An overnight culture of E. coli or V. fischeri was diluted 1:10 with appropriate media (LB plus 10 μg/mL tetracycline for E. coli; LBS for V. fischeri). A 200-μL portion of the diluted culture was added to each well of the plate. Plates were grown for 4-8 h with shaking (200 rpm; 30° C. for E. coli and RT for V. fischeri). Luminescence was measured using a multilabel plate reader and normalized to cell density. […] All assays were performed in triplicate. Graphpad Prism software was used to calculate IC50 and EC50 values.
(§5) Vibrio fischeri assay procedures. […] An overnight culture of V. fischeri ES114 (WT, Δ-luxI or Δ-luxR) was diluted 1:10 with LBS medium. A-200 μL portion of the diluted culture was added to each well of the plate. Plates were grown at RT with shaking (200 rpm) until the OD600=0.35-0.4 (4-6 h). Luminescence then was measured and normalized to cell density per well. […] All assays were performed in triplicate. IC50 and EC50 values were calculated using GraphPad Prism software using a sigmoidal curve fit.
(§6) V. fischeri reporter gene assay protocols. […] An overnight culture of V. fischeri ES114 (D-luxI) was diluted 1:10 with LBS medium. A 200-μL portion of the diluted culture was added to each well of the multititer plate. Plates were grown at RT with shaking (200 rpm) until the OD600=0.35-0.4 (4-6 h). Luminescence then was measured and normalized to cell density per well.
as §1
as §6, with “(Δ-luxI)” for “(D-luxI)”, “A200 μL” for “A 200-μL”, “incubated” for “grown”, “RT” for “RT with shaking (200 rpm)”
as §1

[5] = molecular target: T3, LuxR; set-up: species or system Vibrio fischeri; conditions: for V. fischeri-LuxR Activation [%]: 200 μM ligand; for Activation (%): V. fischeri-LuxR, Library C primary agonism screen
Procedure: as §4, §5, §6, §1
as §6, with “(Δ-luxI)” for “(D-luxI)”, “A200 μL” for “A 200-μL”, “incubated” for “grown”, “RT” for “RT with shaking (200 rpm)”
as §1

[6] = A. tumefaciens WCF47 (pCF372), normalized to OOHL
[7] = E. coli DH5α (pJN105L pSC11), normalized to OdDHL
[8] = V. fischeri ES114 (Δ-luxI), normalized to OHHL

T2 sequence (P25084 whole entry): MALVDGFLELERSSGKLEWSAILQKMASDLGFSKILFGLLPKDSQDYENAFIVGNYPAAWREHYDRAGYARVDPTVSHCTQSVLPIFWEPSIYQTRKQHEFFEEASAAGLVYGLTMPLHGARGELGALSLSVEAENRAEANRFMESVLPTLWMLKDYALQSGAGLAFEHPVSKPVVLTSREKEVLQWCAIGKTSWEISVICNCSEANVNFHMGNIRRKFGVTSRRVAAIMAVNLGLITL
T3 sequence (P35327 whole entry): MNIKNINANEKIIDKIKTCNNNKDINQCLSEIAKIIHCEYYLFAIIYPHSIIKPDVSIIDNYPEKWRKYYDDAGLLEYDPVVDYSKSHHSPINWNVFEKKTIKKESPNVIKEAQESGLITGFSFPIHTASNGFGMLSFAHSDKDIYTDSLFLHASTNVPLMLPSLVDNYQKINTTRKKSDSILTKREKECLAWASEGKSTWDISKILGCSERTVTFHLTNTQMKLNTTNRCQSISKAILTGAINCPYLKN
T1 sequence (P33905 whole entry): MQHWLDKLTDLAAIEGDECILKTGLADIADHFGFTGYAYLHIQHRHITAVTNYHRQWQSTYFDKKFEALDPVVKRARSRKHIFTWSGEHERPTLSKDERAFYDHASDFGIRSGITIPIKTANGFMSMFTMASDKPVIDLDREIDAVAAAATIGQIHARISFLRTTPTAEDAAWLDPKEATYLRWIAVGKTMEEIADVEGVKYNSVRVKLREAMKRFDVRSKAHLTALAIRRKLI

Compound	A. tumefaciens-TraR Activation [%] [1, 6] [%]	A. tumefaciens-TraR Inhibition [%] [1, 6] [%]	E. coli-LasR Inhibition [%] [2, 7] [%]	E. coli-LasR Activation [%] [3, 7] [%]	V. fischeri-LuxR Inhibition [%] [4] [%]	V. fischeri-LuxR Activation [%] [5, 8] [%]	also measured
CCCCCCCCCCCCCCCC(=O)N[C@H]1CCOC1=O [A6]	0	0	5	11	27	2	–
O=C(Cc1ccc(C(F)(F)F)cc1)N[C@H]1CCOC1=O [C20, 4-trifluoromethyl PHL]	–	–	–	–	–	–	Activation (%) [1]: 2%; Inhibition (%) [1]: 92%; IC50 [1]: 810 nM; Inhibition (%) [2]: 26%; Activation (%) [3]: 0%; Inhibition (%) [4]: 78%; Activation (%) [5]: 3%
CC(C)(C)OC(=O)NCc1ccc(C(=O)N[C@H]2CCOC2=O)cc1 [A21]	0	13	12	0	35	1	–
O=C(NC1CCOC1=O)c1ccc(N=Nc2ccccc2)cc1 (stereo not drawn) [D20]	0	4	12	0	46	2	–
4-hydroxy PHL [B27]	0	3	7	0	12	2	–
2-aminophenol analog of OdDHL [compound 7, reference compound]	0	9	4	18	3	1	–
CC(C)(C)OC(=O)NCCCCC(=O)N[C@H]1CCOC1=O [A22]	0	10	15	3	47	2	–
CCOC(=O)/C=C/C(=O)N[C@H]1CCOC1=O [A20]	0	3	13	0	37	1	–
COc1ccc(CC(=O)N[C@H]2CCOC2=O)cc1 [C24]	–	–	–	–	–	–	Activation (%) [1]: 0%; Inhibition (%) [1]: 26%; Inhibition (%) [2]: 16%; Activation (%) [3]: 0%; Inhibition (%) [4]: 57%; Activation (%) [5]: 3%
O=C(Cc1ccc(N=Nc2ccccc2)cc1)NC1CCOC1=O (stereo not drawn) [B22]	0	9	13	1	63	3	–
O=C(Cc1ccccc1I)N[C@H]1CCOC1=O [B15]	0	5	17	0	63	7	–
O=C(Cc1ccc(C(F)(F)F)cc1)N[C@H]1CCOC1=O [B23, 4-trifluoromethyl PHL]	–	–	–	–	78	–	activation at 10 µM ([1]; read-out: A. tumefaciens-TraR Activation [%]): 2%; inhibition at 10 µM ([1]; read-out: A. tumefaciens-TraR Inhibition [%], 10 μM synthetic ligand against 100 nM OOHL, A. tumefaciens WCF47 (pCF372), normalized to OOHL): 92%; inhibition at 5 µM ([2]; read-out: E. coli-LasR Inhibition [%], 5 μM synthetic ligand against 7.5 nM OdDHL, E. coli DH5α (pJN105L pSC11), normalized to OdDHL): 26%; activation at 5 µM ([3]; read-out: E. coli-LasR Activation [%], 5 μM ligand, E. coli DH5α (pJN105L pSC11), normalized to OdDHL): 0%; IC50 ([4]; determined against 5 μM OHHL, read-out: LuxR IC50): 610 nM; activation at 200 µM ([5]; read-out: V. fischeri-LuxR Activation [%], 200 μM ligand, V. fischeri ES114 (Δ-luxI), normalized to OHHL): 3%
4-amino PHL [C21]	–	–	–	–	–	–	Activation (%) [1]: 0%; Inhibition (%) [1]: 5%; Inhibition (%) [2]: 8%; Activation (%) [3]: 0%; Inhibition (%) [4]: 12%; Activation (%) [5]: 3%
CC(=O)c1ccc(OCC(=O)N[C@H]2CCOC2=O)cc1C [D17]	1	92	26	0	50	2	IC50 [1]: 1400 nM
